In the NIST ThermoML archive (doi:10.1016/j.jct.2012.03.003):

Assay: xn = mol fraction of the nth substance listed
Settings: Liquid, Vibrating tube method

COc1cc2c(cc1O)CC1c3c(cc(O)c(OC)c3-2)CCN1C (stereo not given) [boldine] + CCO
Settings	mass density [kg/m3]
342.88 K, 1000 kPa, x1 = 0.0267	802.49
342.88 K, 2000 kPa, x1 = 0.0267	803.51
342.88 K, 3000 kPa, x1 = 0.0267	804.51
342.88 K, 4000 kPa, x1 = 0.0267	805.52
342.88 K, 5000 kPa, x1 = 0.0267	806.51
342.88 K, 6000 kPa, x1 = 0.0267	807.51
342.88 K, 7000 kPa, x1 = 0.0267	808.51
342.88 K, 8000 kPa, x1 = 0.0267	809.49
342.88 K, 9000 kPa, x1 = 0.0267	810.47
342.88 K, 10000 kPa, x1 = 0.0267	811.43
342.88 K, 11000 kPa, x1 = 0.0267	812.4
342.88 K, 12000 kPa, x1 = 0.0267	813.36
342.88 K, 13000 kPa, x1 = 0.0267	814.3
342.88 K, 14000 kPa, x1 = 0.0267	815.22
342.88 K, 15000 kPa, x1 = 0.0267	816.14
342.88 K, 16000 kPa, x1 = 0.0267	817.05
342.88 K, 17000 kPa, x1 = 0.0267	817.95
342.88 K, 18000 kPa, x1 = 0.0267	818.81
342.88 K, 19000 kPa, x1 = 0.0267	819.68
342.88 K, 20000 kPa, x1 = 0.0267	820.53
342.9 K, 1000 kPa, x1 = 0.0196	790.39
342.9 K, 2000 kPa, x1 = 0.0196	791.42
342.9 K, 3000 kPa, x1 = 0.0196	792.45
342.9 K, 4000 kPa, x1 = 0.0196	793.47
342.9 K, 5000 kPa, x1 = 0.0196	794.49
342.9 K, 6000 kPa, x1 = 0.0196	795.52
342.9 K, 7000 kPa, x1 = 0.0196	796.52
342.9 K, 8000 kPa, x1 = 0.0196	797.53
342.9 K, 9000 kPa, x1 = 0.0196	798.53
342.9 K, 10000 kPa, x1 = 0.0196	799.52
342.9 K, 11000 kPa, x1 = 0.0196	800.49
342.9 K, 12000 kPa, x1 = 0.0196	801.46
342.9 K, 13000 kPa, x1 = 0.0196	802.42
342.9 K, 14000 kPa, x1 = 0.0196	803.37
342.9 K, 15000 kPa, x1 = 0.0196	804.3
342.9 K, 16000 kPa, x1 = 0.0196	805.22
342.9 K, 17000 kPa, x1 = 0.0196	806.13
342.9 K, 18000 kPa, x1 = 0.0196	807.03
342.9 K, 19000 kPa, x1 = 0.0196	807.91
342.9 K, 20000 kPa, x1 = 0.0196	808.78
342.92 K, 1000 kPa, x1 = 0.0012	748.44
342.92 K, 1000 kPa, x1 = 0.0074	761.5
342.92 K, 2000 kPa, x1 = 0.0012	749.56
342.92 K, 2000 kPa, x1 = 0.0074	762.58
342.92 K, 3000 kPa, x1 = 0.0012	750.65
342.92 K, 3000 kPa, x1 = 0.0074	763.66
342.92 K, 4000 kPa, x1 = 0.0012	751.76
342.92 K, 4000 kPa, x1 = 0.0074	764.73
342.92 K, 5000 kPa, x1 = 0.0012	752.85
342.92 K, 5000 kPa, x1 = 0.0074	765.81
342.92 K, 6000 kPa, x1 = 0.0012	753.94
342.92 K, 6000 kPa, x1 = 0.0074	766.87
342.92 K, 7000 kPa, x1 = 0.0012	755.02
342.92 K, 7000 kPa, x1 = 0.0074	767.93
342.92 K, 8000 kPa, x1 = 0.0012	756.1
342.92 K, 8000 kPa, x1 = 0.0074	768.98
342.92 K, 9000 kPa, x1 = 0.0012	757.16
342.92 K, 9000 kPa, x1 = 0.0074	770.04
342.92 K, 10000 kPa, x1 = 0.0012	758.21
342.92 K, 10000 kPa, x1 = 0.0074	771.07
342.92 K, 11000 kPa, x1 = 0.0012	759.27
342.92 K, 11000 kPa, x1 = 0.0074	772.09
342.92 K, 12000 kPa, x1 = 0.0012	760.3
342.92 K, 12000 kPa, x1 = 0.0074	773.12
342.92 K, 13000 kPa, x1 = 0.0012	761.33
342.92 K, 13000 kPa, x1 = 0.0074	774.1
342.92 K, 14000 kPa, x1 = 0.0012	762.33
342.92 K, 14000 kPa, x1 = 0.0074	775.1
342.92 K, 15000 kPa, x1 = 0.0012	763.33
342.92 K, 15000 kPa, x1 = 0.0074	776.07
342.92 K, 16000 kPa, x1 = 0.0012	764.31
342.92 K, 16000 kPa, x1 = 0.0074	777.04
342.92 K, 17000 kPa, x1 = 0.0012	765.26
342.92 K, 17000 kPa, x1 = 0.0074	777.98
342.92 K, 18000 kPa, x1 = 0.0012	766.22
342.92 K, 18000 kPa, x1 = 0.0074	778.92
342.92 K, 19000 kPa, x1 = 0.0012	767.14
342.92 K, 19000 kPa, x1 = 0.0074	779.83
342.92 K, 20000 kPa, x1 = 0.0012	768.07
342.92 K, 20000 kPa, x1 = 0.0074	780.71
343.02 K, 1000 kPa, x1 = 0.0136	775.25
343.02 K, 2000 kPa, x1 = 0.0136	776.31
343.02 K, 3000 kPa, x1 = 0.0136	777.37
343.02 K, 4000 kPa, x1 = 0.0136	778.42
343.02 K, 5000 kPa, x1 = 0.0136	779.47
343.02 K, 6000 kPa, x1 = 0.0136	780.52
343.02 K, 7000 kPa, x1 = 0.0136	781.56
343.02 K, 8000 kPa, x1 = 0.0136	782.6
343.02 K, 9000 kPa, x1 = 0.0136	783.63
343.02 K, 10000 kPa, x1 = 0.0136	784.63
343.02 K, 11000 kPa, x1 = 0.0136	785.65
343.02 K, 12000 kPa, x1 = 0.0136	786.65
343.02 K, 13000 kPa, x1 = 0.0136	787.64
343.02 K, 14000 kPa, x1 = 0.0136	788.62
343.02 K, 15000 kPa, x1 = 0.0136	789.58
343.02 K, 16000 kPa, x1 = 0.0136	790.53
343.02 K, 17000 kPa, x1 = 0.0136	791.46
343.02 K, 18000 kPa, x1 = 0.0136	792.39
343.02 K, 19000 kPa, x1 = 0.0136	793.28
343.02 K, 20000 kPa, x1 = 0.0136	794.17
352.79 K, 1000 kPa, x1 = 0.0196	780.8
352.79 K, 2000 kPa, x1 = 0.0196	781.92
352.79 K, 3000 kPa, x1 = 0.0196	783.03
352.79 K, 4000 kPa, x1 = 0.0196	784.09
352.79 K, 5000 kPa, x1 = 0.0196	785.23
352.79 K, 6000 kPa, x1 = 0.0196	786.32
352.79 K, 7000 kPa, x1 = 0.0196	787.4
352.79 K, 8000 kPa, x1 = 0.0196	788.47
352.79 K, 9000 kPa, x1 = 0.0196	789.53
352.79 K, 10000 kPa, x1 = 0.0196	790.58
352.79 K, 11000 kPa, x1 = 0.0196	791.62
352.79 K, 12000 kPa, x1 = 0.0196	792.64
352.79 K, 13000 kPa, x1 = 0.0196	793.65
352.79 K, 14000 kPa, x1 = 0.0196	794.65
352.79 K, 15000 kPa, x1 = 0.0196	795.64
352.79 K, 16000 kPa, x1 = 0.0196	796.61
352.79 K, 17000 kPa, x1 = 0.0196	797.57
352.79 K, 18000 kPa, x1 = 0.0196	798.51
352.79 K, 19000 kPa, x1 = 0.0196	799.44
352.79 K, 20000 kPa, x1 = 0.0196	800.36
352.81 K, 1000 kPa, x1 = 0.0012	738.74
352.81 K, 1000 kPa, x1 = 0.0136	765.67
352.81 K, 2000 kPa, x1 = 0.0012	739.95
352.81 K, 2000 kPa, x1 = 0.0136	766.82
352.81 K, 3000 kPa, x1 = 0.0012	741.15
352.81 K, 3000 kPa, x1 = 0.0136	767.97
352.81 K, 4000 kPa, x1 = 0.0012	742.33
352.81 K, 4000 kPa, x1 = 0.0136	769.1
352.81 K, 5000 kPa, x1 = 0.0012	743.51
352.81 K, 5000 kPa, x1 = 0.0136	770.24
352.81 K, 6000 kPa, x1 = 0.0012	744.68
352.81 K, 6000 kPa, x1 = 0.0136	771.36
352.81 K, 7000 kPa, x1 = 0.0012	745.85
352.81 K, 7000 kPa, x1 = 0.0136	772.46
352.81 K, 8000 kPa, x1 = 0.0012	746.99
352.81 K, 8000 kPa, x1 = 0.0136	773.56
352.81 K, 9000 kPa, x1 = 0.0012	748.13
352.81 K, 9000 kPa, x1 = 0.0136	774.65
352.81 K, 10000 kPa, x1 = 0.0012	749.26
352.81 K, 10000 kPa, x1 = 0.0136	775.73
352.81 K, 11000 kPa, x1 = 0.0012	750.37
352.81 K, 11000 kPa, x1 = 0.0136	776.81
352.81 K, 12000 kPa, x1 = 0.0012	751.47
352.81 K, 12000 kPa, x1 = 0.0136	777.86
352.81 K, 13000 kPa, x1 = 0.0012	752.55
352.81 K, 13000 kPa, x1 = 0.0136	778.9
352.81 K, 14000 kPa, x1 = 0.0012	753.61
352.81 K, 14000 kPa, x1 = 0.0136	779.93
352.81 K, 15000 kPa, x1 = 0.0012	754.67
352.81 K, 15000 kPa, x1 = 0.0136	780.95
